US11499197B2, “Prognosis method of multiple myeloma” (CENTRE NATIONAL DE LA RECHERCHE SCIENTIFIQUE, priority 2017, dated 2022)
pIC50: −log10 of the molar value.

Tests used:
AMO1 = test: Cell Titer Glo viability, AMO1 HMCL; type: cell-based, human; conditions: for IC20 / pIC50: AMO1, CTG viability
Procedure: (§1) AMO-1 and OPM2 HMCLs were purchased from DSMZ (Braunschweig, Germany), XG1 and XG21 were obtained as described (Moreaux et al., 2011). HMCLs were cultured in RPMI 1640 medium, 10% FCS (control medium). For XG-IL-6 dependent HMCLs 2 ng/ml IL-6 was added. Cells were cultured in 96-well flat-bottom microtiter plates in the presence of a concentration range of selected compounds: AZD7762 and OTSSP167 (Selleck, euromedex), HITOPK032, XL413, SRPIN340 (Sigma), AZ3146, Centrinone B (Tocris). Cell Titer Glo Luminescent Assay (Promega, Madison, Wis., USA) was used to assess cell viability, and the 50% inhibition (IC50) was determined using GraphPad Prism software (http://www.graphpad.com/scientific-software/prism/).
(§2) Statistical comparisons were done with unpaired or paired Student's t-tests. The effect of drug combination was evaluated using the methods developed by Chou and Talalay (Chou and Talalay, 1984) by calculating the combination Index (CI), with CI<1, CI=1, and CI>1 respectively indicating synergism, additive effects, and antagonism. Here we used CI=0.90-1.10 to indicated additivity.

OPM2 = test: Cell Titer Glo viability, OPM2 HMCL; type: cell-based, human; conditions: OPM2, CTG viability
Procedure: as §1, §2

XG1 = test: Cell Titer Glo viability, XG1 HMCL; type: cell-based, human; conditions: XG1, CTG viability
Procedure: as §1, §2

XG21 = test: Cell Titer Glo viability, XG21 HMCL; type: cell-based, human; conditions: XG21, CTG viability
Procedure: as §1, §2

AMO1 HMCL [1] = test: Apoptosis (annexin V, PARP cleavage) by flow cytometry; type: cell-based, human; conditions: for cell death via apoptosis (annexin) on co-treatment: AMO1, sub-lethal Melphalan or Lenalidomide + inhibitor at IC20, 4 days
Description: FIG. 14 represents graphs showing that inhibitors increase apoptosis (annexin and PARP) in AMO1 cell line; Annexin and PARP were monitored by flow cytometry after 4 days treatments. p-value: *<0.05; **<0.01; ***<0.001.
FIG. 25 represents graphs illustrating that the co-treatments induce cell death and differentially affect DNA damages in AMO1 HMCL. Co-treatment with selected kinase inhibitors at IC20 and Melphalan or Lenalidomide.
(§3) Cells were culture in 12 wells plate for 4 days. Apoptotic cells were detected using phycoerythrin-conjugated Annexin V (PE-annexin V, BD Pharmingen). For the cell cycle and DNA damage, we used the Apoptosis, DNA damage and cell proliferation kit (BD), following the manufacturer's protocol.

AMO1 HMCL [2] = test: Cell cycle analysis by flow cytometry; type: cell-based, human; conditions: for cell cycle arrest: AMO1, single agent; for cell cycle arrest on co-treatment with melphalan or lenalidomide: AMO1, 4 days co-treatment
Description: FIG. 15 represents graphs showing the effects of the treatments with inhibitors on cell cycle in AMO1 cells. p-value: *<0.05; **<0.01; ***<0.001.
FIG. 29 represents graphs illustrating that Co-treatments differentially affect cell cycle in AMO1 cell line. Cotreatment with Melphalan or Lenalidomide and A) AZD7762; B) OTSSP167; C) Centrinone B; D) XL413. Cell cycle was monitored by flow cytometry after 4 days co-treatments. p-value: *<0.05; **<0.01; ***<0.001.
as §3

[3] = tested on: primary MM cells from patients; test: Primary myeloma cell cytotoxicity (CD138 flow cytometry); type: cell-based, human; conditions: N=5 patients, 4 days of treatment
Description: FIG. 16 represents graphs showing the % of CD138+ cells after treatment by AZD7762, OTSSP167 and Centrinone B in 5 different primary MM cells.
FIG. 17 represents graphs showing that the three tested inhibitors reduce % of tumor MM cells without toxicity on normal BM microenvironment cells from patients (N=5). CD138 amount was monitored by flow cytometry after 4 days of treatment.
Bone marrow of patients presenting with previously untreated MM (N=5) at the university hospital of Montpellier was obtained after patients' written informed consent in accordance with the Declaration of Helsinki and agreement of the Montpellier University Hospital Centre for Biological Resources (DC-2008-417). Primary myeloma cells of patients were cultured with or without graded concentrations of selected inhibitors and MMC cytotoxicity evaluated using anti-CD138-Phycoerythrin monoclonal antibody and CD38-Allophycocyanin (Beckman-Coulter) as described (Moreaux et al., 2012).

[4] = tested on: normal BM microenvironment cells from patients; test: Toxicity on non-tumoral bone marrow cells in primary patient cultures; type: cell-based, human; conditions: N=5 patients, 4 days
Description: CD138 amount was monitored by flow cytometry after 4 days of treatment.

[5] = tested on: primary Mouse myeloma (5T33vv) and mouse myeloma cell line (5T33vt); test: Mouse myeloma cell viability (CTG); type: cell-based; conditions: 5T33vv and 5T33vt, CTG after 24, 48 or 96 hours
Procedure: FIG. 18 represents graphs cell viability of primary Mouse myeloma (5T33vv) and mouse myeloma cell line (5T33vt), monitored by CTG after 24, 48 or 96 hours treatment with indicated inhibitors.

AMO1 HMCL [6] = test: Proteome profiler array (phospho kinases, apoptosis proteins); type: cell-based, human; conditions: AMO1, 48 h treatment
Procedure: Proteins accumulations were monitored after 48 h treatment on AMO1 HMCL using proteome profiler array. Relative amount was calculated as the mean of pixel density. Phospho kinases and apoptosis proteins were quantified using the dedicated proteome Profiler™ array (RD systems, Bio-techne) following the manufacturer instructions. 500 μg and 300 μg protein were used for the two arrays respectively.

XG7 WT and XG7 Mres = test: Viability of melphalan sensitive and resistant cell lines (CTG); type: cell-based, human; conditions: inhibitor at IC20
Procedure: FIG. 32 represents a graph of the calculated IC50 for the co-treatment with melphalan and selected kinase inhibitors at IC20. Melphalan sensitive (XG7 WT) and Resistant (XG7 MRes) cell lines were treated for 4 days with the selected kinases inhibitors. Cell viability was monitored by the CTG. p-value: *<0.05; **<0.01; ***<0.001.
The facts that: 1) all drugs tested are actively decreasing HMCLs viability and induce apoptosis; 2) co-treatment with melphalan leads to synergy or potentialized the decrease of cell viability; 3) some of the selected kinases inhibitors can reverse the resistance to lenalidomide in AMO1 HMCL, led us to question the capability of these drugs to reverse or reduce also melphalan resistance. In that purpose, the inventors used a cell line developed in the inventors' laboratory, and that has been culture to resist to melphalan (Mres) compare to its negative control (WT) (FIG. 30). The inventors first tested the capacity of the different inhibitors to reduce cell viability in this model. All tested kinase's inhibitors lower cell viability of the control or the melphalan resistant cell line.

[7] = tested on: HMCLs (AMO1, OPM2, XG1, XG21); test: HMCL viability, single and co-treatment with conventional MM drugs (CTG); type: cell-based, human; conditions: for Lenalidomide treatment on co-treatment with kinase inhibitor / synergy with lenalidomide / synergy with melphalan: inhibitor at IC20; for Lenalidomide treatment on co-treatment with kinase inhibitor: AMO1 and OPM2; for synergy with lenalidomide / synergy with melphalan: XG1, XG21, AMO1, OPM2
Procedure: as §1, §2
Keeping in mind the main objective of identifying alternative and efficient complementary treatment for MM patients, the inventors next performed co-treatment on HMCLs with commonly used therapeutic drugs in MM (e.g. Melphalan, Lenalidomide, Velcade) and the different kinases inhibitors. In order to fit to the goal of a combination treatment the inventors used an arbitrary […] for all the kinases inhibitors, which the inventors associated with various concentration of the standard therapeutic.

AMO1 HMCL [8] = test: DNA damage (γH2AX) by flow cytometry; type: cell-based, human; conditions: for γH2AX (DNA damages), used alone: AMO1, 4 days
Description: FIG. 27 represents graphs illustrating that the co-treatments induce cell death and differentially affect DNA damages in AMO1 HMCL.
FIG. 28 represents graphs representing DNA damages following SRPIN340 and AZ3146 co-treatment in AMO1 cell line. γH2AX were monitored by flow cytometry after 4 days treatments. p-value: *<0.05; **<0.01; ***<0.001.
as §3

Molecule | cell death via apoptosis (annexin) on co-treatment (AMO1 HMCL [1]) | cell cycle arrest (AMO1 HMCL [2]) | number of tumoral cells (CD138+) [3] | effect on non-tumoral cells [4] | cell viability in mouse cellular model of multiple myeloma [5] | melphalan resistance on co-treatment with melphalan (XG7 WT and XG7 Mres) | Lenalidomide treatment on co-treatment with kinase inhibitor [7] | synergy with lenalidomide [7] | synergy with melphalan [7] | IC20 (AMO1) [nM] | pIC50 (AMO1) | pIC50 (OPM2) | pIC50 (XG1) | pIC50 (XG21) | γH2AX (DNA damages), used alone (AMO1 HMCL [8]) | further results
NC(=O)Nc1cc(-c2cccc(F)c2)sc1C(=O)N[C@H]1CCCNC1 [AZD7762] | increase cell death via apoptosis | arrested the cells in S phase | reduced the number of tumoral cells | barely affected | demonstrated similar efficiency | reversed the melphalan resistance | potentialized | synergized with the conventional treatment | synergized with the conventional treatment | – | – | – | – | – | – | IC20 (AMO1; Homo sapiens): 82 nM; pIC50 (AMO1; Homo sapiens): 6.87; pIC50 (OPM2; Homo sapiens, OPM-2): 6.94; pIC50 (XG1; Homo sapiens): 7.02; pIC50 (XG21; Homo sapiens): 6.68; claspin and survivin (AMO1 HMCL [6]): decrease in claspin and survivin
COc1c(Nc2cc(C)[nH]n2)nc(Sc2ccc(S(=O)(=O)Cc3cccc([N+](=O)[O-])c3F)cc2F)nc1N1CCCCC1 [Centrinone-B] | potentialized cell death only with lenalidomide | arrested the cell cycle in G0/G1 | reduced the number of tumoral cells | barely affected | less effective on cell viability | – | – | synergized with the conventional treatment | – | 24 | 6.38 | 6.36 | 6.65 | 5.86 | – | –
N#Cc1c2nc3ccccc3nc2n2ccc(NC(=O)c3cccs3)cc12 [HI)TOPK] | – | – | – | – | – | reversed the melphalan resistance | potentialized | synergized with the conventional treatment | synergized with the conventional treatment | 3900 | 5.29 | 5.30 | 5.36 | 5.39 | – | –
CC(=O)c1cnc2ccc(-c3cc(Cl)c(O)c(Cl)c3)nc2c1N[C@H]1CC[C@H](CN(C)C)CC1 [OTSSP167] | increase cell death via apoptosis | arrested the cells in S phase | reduced the number of tumoral cells | barely affected | demonstrated similar efficiency | – | potentialized | synergized with the conventional treatment | synergized with the conventional treatment | – | – | – | – | – | showed an activity on […]H2AX recruitment when used alone | IC20 (AMO1; Homo sapiens): 5.4 nM; pIC50 (AMO1; Homo sapiens): 8.09; pIC50 (OPM2; Homo sapiens, OPM-2): 7.80; pIC50 (XG1; Homo sapiens): 7.92; pIC50 (XG21; Homo sapiens): 8.70; cell cycle arrest on co-treatment with melphalan or lenalidomide (AMO1 HMCL [2]): no differences between single and co-treatment; γH2AX (DNA damages) on co-treatment with melphalan (AMO1 HMCL [8]; AMO1, inhibitor at IC20, 4 days): significantly potentialized the melphalan co-treatment by increasing […]H2AX
O=C(Nc1cc(C(F)(F)F)ccc1N1CCCCC1)c1ccncc1 [SRPIN340] | didn't have any significant additional effect on cell death | – | – | – | – | – | – | synergized with the conventional treatment | – | 30000 | 4.36 | 4.48 | 4.52 | 4.59 | showed an activity on […]H2AX recruitment when used alone | apoptosis as measured by annexin V staining and PARP clivage (AMO1 HMCL [1]; AMO1, single agent, 2 concentrations surrounding IC50, 4 days): all drugs but SRPIN340/SRPK1 induced apoptosis
Cl.O=c1[nH]c([C@@H]2CCCN2)nc2c1oc1ccc(Cl)cc12 [XL413] | increase cell death via apoptosis | arrested the cells in S phase | – | – | – | reversed the melphalan resistance | – | – | synergized with the conventional treatment | 9400 | 4.70 | 4.61 | 5.38 | 4.52 | showed an activity on […]H2AX recruitment when used alone | cell cycle arrest on co-treatment with melphalan or lenalidomide (AMO1 HMCL [2]): no differences between single and co-treatment
Nc1cccc2c1CN(C1CCC(=O)NC1=O)C2=O (stereo not shown) [lenalidomide] | – | – | – | – | – | – | – | – | – | – | – | – | – | – | didn't demonstrate any particular effect | Lenalidomide IC50, treatment alone (AMO1; AMO1): undetermined; Lenalidomide effect on viability alone or in combination ([7]; lenalidomide resistant HMCLs XG1 and XG21): no effect of the treatment alone or in combination
N[C@@H](Cc1ccc(N(CCCl)CCCl)cc1)C(=O)O [melphalan] | – | – | – | – | – | – | – | – | – | – | – | – | – | – | increased the measured […]H2AX | –
AZ3146 | didn't have any significant additional effect on cell death | arrested the cell cycle in G0/G1 | – | – | – | – | – | – | – | 1400 | 5.59 | 5.72 | 5.92 | 5.52 | – | –
